Source: US8637252B2, “Methods and compositions for determining altered susceptibility of HIV-1 to anti-HIV drugs” (Monogram Biosciences, Inc., priority 2011, dated 2014)

Assays:
Type in all cases: cell-based
[1] = system: HIV-1 NL4-3 site-directed reverse transcriptase mutants; experiment: phenotypic drug resistance test, site-directed reverse transcriptase mutants in NL4-3 background (POL segment assay)
Protocol: Further, a site directed double mutant T3691/K103N was generated using conventional techniques and tested for resistance to an NNRTI using the methods described above.
To assess the effects of mutations at positions 348, 369, and 399, a series of site-directed mutants were constructed in an wild-type (NL4-3) background. The NNRTI susceptibility phenotypes of these mutants were then determined using the POL segment assay according to Example 2.
In particular, site-directed mutants were constructed in an NL4-3 background comprising N348I, T369I, E399D, or the combination of N3481 and T369I.
Next, a series of site-directed mutants were constructed to assess the effects of combinations of N3481, T369I, and E399D with previously recognized NNRTI resistance mutations. In particular, mutants comprising N348I, T369I, and E399D were made in combination with G190S, with K103N, and with the combination of K103R and V179D. The effects of these combinations on DLV, EFV, and NVP susceptibility were tested using the POL segment assay according to the method describe in Example 2. The results from these experiments are presented as FIG. 10.
To assess the specific effects of mutations at positions 348, 369, and 399, a series of site-directed mutants were constructed in an wild-type (NL4-3) background. The AZT susceptibility phenotype of these mutants were then determined with a POL segment assay according to Example 2.
In particular, site-directed mutants were constructed in an NL4-3 background comprising N348I, T3691, E399D, or the combination of N348I and T3691. The FC in AZT susceptibility for each mutant is shown as FIG. 13.

[2] = system: HIV-1 patient-derived test vectors with site-directed reverse transcriptase mutations; experiment: phenotypic drug resistance test, site-directed reverse transcriptase mutants in patient backgrounds
Protocol: In addition, using conventional technique, the T369I mutation was introduced into a resistance test vector comprising PR-RT segment derived from patient sample 62, which comprises mutations A62V, Q102K, K103N, K122E, D123N, C162S, D177E, 1178L, M184V, T200A, Q207E, T215Y, P243S, V245Q, A272P and R277K in reverse transcriptase. Among these mutations, K103N correlates with resistance to a number of NNRTIs, including NVP. This patient sample was tested for resistance to an NNRTI using the methods described above.
(§1) To further analyze the effects of N348I, T369I, and E399D on NNRTI resistance, an additional series of site directed mutants was constructed in non-wild-type backgrounds. In particular, site-directed mutants comprising the N348I, T369I, or E399D mutation were constructed in POL-containing test vectors obtained from three different patient samples. Results from these experiments are presented as FIG. 11.
as §1, with “on AZT” for “on NNRTI”, “the N3481,” for “the N348I,”, “from two” for “from three”, “samples.” for “samples. Results from these experiments are presented as FIG. 11.”

[3] = system: HIV-1 (patient-derived RHIN segment); experiment: phenotypic drug resistance test, resistance test vectors with patient-derived RHIN segment, luciferase, 293 cells
From the text: Patient-derived segment(s) corresponding to the entire pol gene, encoding HIV protease, reverse transcriptase (including RNAse H), and integrase (hereinafter “POL”), the portion of pol encoding amino acids 1-305 of reverse transcriptase (hereinafter “PR-RT”), the portion of pol encoding amino acids 319-440 of reverse transcriptase (including RNAse H), and integrase (hereinafter “RHIN”), were amplified by the reverse transcription-polymerase chain reaction method (RT-PCR) using viral RNA isolated from viral particles present in the plasma or serum of HIV-infected individuals as described below. The portion of pol encoding protease, amino acids 1-531 of reverse transcriptase (including RNase H) (hereinafter “PRRT-RH”), or the portion of pol encoding protease, reverse transcriptase (including RNAse H) and integrase (hereinafter “PRRT-RHIN”), were assembled from amplicons described above by standard recombinant DNA techniques involving a KpnI restriction site at amino acid 400 or a Pin A1 site at amino acid 315.
Virus was pelleted by centrifugation at 20,400×g for 60 min from plasma (typically, 1 ml) prepared from blood samples collected in evacuated tubes containing either EDTA, acid-citrate dextrose, or heparin as an anticoagulant. Virus particles were disrupted by resuspending the pellets in 200 [1.1 of lysis buffer (4 M guanidine thiocyanate, 0.1 M Tris HCl (pH 8.0), 0.5% sodium lauryl sarcosine, 1% dithiothreitol). RNA was extracted from viral lysates by using oligo(dT) linked to magnetic beads (Dynal, Oslo, Norway). Reverse transcription was performed with Superscript III (Invitrogen) at 50 degrees for 1 hour using primer 1.
From the resultant cDNA either POL or RHIN sequences were amplified using the Advantage High Fidelity PCR kit (BD Biosciences; Clontech). POL amplification products are made using forward Primer 3 containing an Apal site and reverse Primer 4 containing a Xho 1 site. RHIN amplification products are made using forward Primer 2 containing a P1NA1 site and reverse Primer 4 containing a Xho 1 site.
A retroviral vector designed to measure antiretroviral drug susceptibility was constructed by using an infectious molecular clone of HIV-1. The vector, referred to herein as an indicator gene viral vector (IGVV), is replication defective and contains a luciferase expression cassette inserted within a deleted region of the envelope (env) gene. The IGVV is described in U.S. Pat. No. 5,837,464 (International Publication Number WO 97/27319) which is hereby incorporated by reference in its entirety. This retroviral vector was further modified to allow insertion of either the entire pol gene (POL) or the portion of poi encoding amino acids 319-440 of reverse transcriptase, the RNase H portion of reverse transcriptase, and integrase (REIN) by engineering an Xho l restriction enzyme recognition site into vif. Prior to doing this, an Xho 1 site in nef was deleted. Resistance Test vectors (RTVs) were constructed by incorporating amplified POL or RHIN into the IGVV by using Apal and Xhol or PinAI and Xho 1 restriction sites respectively. RTVs were prepared as libraries (pools) in order to capture and preserve the pol or RHIN sequence heterogeneity of the virus in the patient. POL amplification products were digested with Apal and Xhol, purified by agarose gel electrophoresis, and ligated to ApaI- and Xhol-digested IGVV DNA. RHIN amplification products were digested with PinAI and Xho/, purified by agarose gel electrophoresis, and ligated to PinAI and Xhol-digested IGVV DNA. Ligation reactions were used to transform competent Escherichia coli (Invitrogen, Carlsbad, Calif.). An aliquot of each transformation was plated onto agar, and colony counts were used to estimate the number of patient-derived segments represented in each RTV library. RTV libraries that comprised less than 50 members are not considered representative of the patient virus. […]

[4] = system: HIV-1 NL4-3 and IIIB site-directed integrase mutants; experiment: phenotypic INSTI susceptibility test, site-directed integrase mutants in NL4-3 or IIIB background (RHIN segment assay)
Protocol: To assess the effects of mutations at positions 97 and 156 of integrase, two site-directed mutants (T97A and K156N) were constructed in two different wild-type (NL4-3 and IIIB) genetic backgrounds. The INSTI susceptibility phenotypes of these mutants to diketo acid 1, diketo acid 2, and L-870,810 were then determined using the RHIN segment assay according to Example 2.
In particular, site-directed mutants were constructed in an NL4-3 or IIIB background comprising either T97A or K156N. The FC in susceptibility to diketo acid 1, diketo acid 2, and L-870,810 for each mutant is shown as FIG. 18.
Next, a series of site-directed mutants were constructed to assess the effects of combinations of T97A and K156N with previously recognized INSTI resistance mutations. In particular, mutants comprising T97A, K156N, and the combination of T97A and K156N were made in combination with three constellations of previously recognized INSI mutations (V721, F121Y, and T125K; N155S; and T66I and M1541). Each of these combinations was made in a IIIB background. The effects of these combinations on diketo acid 1, diketo acid 2, and L-870,810 susceptibility were tested with the RHIN segment assay according to the method described in Example 2.

Cc1cn([C@H]2C[C@H](N=[N+]=[N-])[C@@H](CO)O2)c(=O)[nH]c1=O [AZT]
FC in susceptibility ([1]; site-directed mutant E399D in NL4-3 background): < 2
FC in susceptibility ([1]; site-directed mutant N348I and T369I combination in NL4-3 background): > 2
FC in susceptibility ([1]; site-directed mutant N348I in NL4-3 background): > 2
fold change for IC50 ([1]; site-directed mutant T369I in NL4-3 background): > 2 fold
change in resistance on addition of mutation ([2]; E399D mutation, patient 45 or patient 50 background): did not significantly increase
change in resistance on addition of mutation ([2]; N348I and T369I mutations, all tested patient backgrounds (patients 45, 50)): increased resistance

O=C(NCc1ccc(F)cc1)c1nc(N2CCCCS2(=O)=O)c2cccnc2c1O [L-870,810]
FC in susceptibility relative to wild-type (NL4-3) ([3]; nine of 128 patient samples, containing integrase K156N): < 0.5
FC in susceptibility relative to wild-type (NL4-3) ([3]; three of 128 patient samples, containing integrase T97A): increased FC
effect of mutation on resistance ([4]; T97A alone or with V72I/F121Y/T125K, N155S, or T66I/M154I, IIIB background): increased resistance
effect of mutation on susceptibility ([4]; integrase K156N in NL4-3 and IIIB backgrounds): increased susceptibility
effect of mutation on susceptibility ([4]; integrase T97A in NL4-3 and IIIB backgrounds): reduced susceptibility
